Measured values as given in patent US20160030426A1, “HETEROARYL COMPOUNDS AND USES THEREOF” (CELGENE AVILOMICS RESEARCH, INC., priority 2013, published 2016).

Biological target: T1, EGFR-WT (Homo sapiens, UniProt P00533)
T1 construct: purchased Invitrogen PV3872
Experiment: Omnia assay for potency assessment against EGFR-WT
Type: biochemical
Settings: 30 min pre-incubation at 27° C., read-out: EGFR Inhibition
Protocol: Omnia Assay Protocol for Potency Assessment Against BTK and EGFR
The mechanics of the assay platform are best described by the vendor (Invitrogen, Carlsbad, Calif.).
10× stocks of EGFR-WT (PV3872) from Invitrogen, 1.13×ATP (Invitrogen catalog number AS001A) and appropriate Tyr-Sox conjugated peptide substrates (Invitrogen catalog number KCZ1001) were prepared in 1× kinase reaction buffer consisting of 20 mM Tris, pH 7.5, 5 mM MgCl2, 1 mM EGTA, 5 mM β-glycerophosphate, 5% glycerol (10× stock, Invitrogen catalog number KB002A) and 0.2 mM DTT (Invitrogen catalog number DS001A). 5 μL of each enzyme were pre-incubated in a Corning (#3574) 384-well, white, non-binding surface microtiter plate (Corning, N.Y.) for 30 min. at 27° C. with a 0.5 μL volume of 50% DMSO and serially diluted compounds prepared in 50% DMSO. Kinase reactions were started with the addition of 45 μL of the ATP/Tyr-Sox peptide substrate mix and monitored every 30-90 seconds for 60 minutes at λex360/λem485 in a Synergy^4 plate reader from BioTek (Winooski, Vt.). […] Initial velocity (0 minutes to ˜30 minutes) from each reaction was determined from the slope of a plot of relative fluorescence units vs time (minutes) and then plotted against inhibitor concentration to estimate IC50 from log[Inhibitor] vs Response, Variable Slope model in GraphPad Prism from GraphPad Software (San Diego, Calif.).

T1 sequence (P00533 668-1210 limits assumed): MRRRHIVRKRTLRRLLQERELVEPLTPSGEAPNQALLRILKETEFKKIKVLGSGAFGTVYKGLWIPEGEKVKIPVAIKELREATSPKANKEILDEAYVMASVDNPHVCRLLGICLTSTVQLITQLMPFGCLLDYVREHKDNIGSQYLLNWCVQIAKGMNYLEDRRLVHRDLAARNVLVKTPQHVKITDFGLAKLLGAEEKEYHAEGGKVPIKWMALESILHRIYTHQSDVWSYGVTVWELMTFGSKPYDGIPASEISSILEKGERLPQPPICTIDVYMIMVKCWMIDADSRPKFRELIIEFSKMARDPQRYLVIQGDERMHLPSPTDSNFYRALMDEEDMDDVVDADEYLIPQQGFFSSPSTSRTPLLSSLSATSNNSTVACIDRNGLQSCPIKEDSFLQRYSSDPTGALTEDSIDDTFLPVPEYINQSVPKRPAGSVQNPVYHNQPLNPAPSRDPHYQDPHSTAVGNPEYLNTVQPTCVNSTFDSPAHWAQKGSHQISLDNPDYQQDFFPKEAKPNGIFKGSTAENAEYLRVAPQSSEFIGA

[2H]C([2H])([2H])OC([2H])([2H])C([2H])([2H])Oc1ccc(Nc2ncc(F)c(Nc3cccc(NC(=O)C=C)c3)n2)cc1 [II-7]
IC50: 10 to 100 nM
